Reference: patent publication US11767520B2, “Compositions and methods for treating lung inflammation” (aTyr Pharma, Inc., priority 2017, dated 2023)

Legend:
[1] = system: bleomycin-induced respiratory impairment; assay: Respiratory measurements by whole body plethysmography, BLM rat model, combination study (Example 3, Table E6); format: in vivo, rat (male Sprague Dawley); set-up: Tidal Volume: unit not given here; conditions: for Expiratory Time / Inspiratory Time / Peak Expiratory Flow / Peak Inspiratory Flow / Tidal Volume / Respiratory Rate / Respiratory Minute Volume: mean; for Respiratory Rate: in breaths/min (unit assumed); for Respiratory Minute Volume: in mL/min (unit assumed)
Experimental: PBS or BLM was administered under isoflurane anesthesia. Excess rats were induced with BLM and used to replace any animals with excessive body weight loss.
All treatments commenced on Day 9.
In-life, body weights were measured and clinical observations were conducted daily. On Days 8, 15 and 21, animals were removed from their home cages and placed individually into whole body plethysmography chambers. After a 20-minute acclimatization phase, respiratory parameters were recorded for 10 minutes. Pre-study and on Days 10 and Day 17, whole blood was obtained from the tail vein and processed to serum for measurement of HRS^FC1.

[2] = system: bleomycin-induced respiratory impairment; assay: Respiratory measurements by whole body plethysmography, BLM rat model (Example 2, Table E4); format: in vivo, rat (male Sprague Dawley); conditions: for Expiratory Time / Inspiratory Time / Peak Expiratory Flow / Peak Inspiratory Flow / Tidal Volume / Respiratory Rate / Respiratory Minute Volume: Ninte. 60 mg/kg PO daily from Day 1, mean; for Respiratory Rate: in breaths/min (unit assumed); for Respiratory Minute Volume: in mL/min (unit assumed)
Experimental: PBS or BLM was administered under isoflurane anesthesia.
In-life, body weights were measured and clinical observations were conducted daily. On Day 8 and Day 15, animals were removed from their home cages and placed individually into whole body plethysmography chambers. After a 20-minute acclimatization phase, respiratory parameters were recorded for 10 minutes.

[3] = system: bleomycin-induced lung inflammation; assay: Histological inflammatory cell infiltrate and type II pneumocyte hyperplasia scores, BLM rat model (Example 2); format: in vivo, rat (male Sprague Dawley); conditions: BLM-induced rats, Day 22; Nintedanib PO; Test Article = HRS^FC1 1 mg/kg on Days 2, 9 and 16; FIG. 5
Experimental: The five lung lobes were collected and weighed. The right lung lobes were inflated and fixed in 10% neutral buffered formalin and embedded in paraffin for histological analysis. An approximately 50 mg piece of the left lung lobe was snap frozen and stored at −80° C. for potential RNA analysis. The remainder of the lobe was also snap frozen until analyzed for collagen content.
Sections for histology were stained using picrosirius red and were scored in a blinded fashion (1 score for each of the 4 lobes) by a veterinary pathologist using a modified Ashcroft score (Hubner et al., 2008). Hydroxyproline content was determined in the left lung lobe using a mass spectrometry method.
Slides were read by a veterinary pathologist and each of the 4 lobes evaluated was assigned 4 scores [Ashcroft for fibrosis (scores range from 0 to 8), perivascular/peribronchiolar inflammatory cell infiltrate (scores range from 0 to 5), interstitial/alveolar inflammatory cell infiltrate (scores range from 0 to 5), type II pneumocyte hyperplasia (scores range from 0 to 5)].

[4] = system: bleomycin-induced lung fibrosis; assay: Survival, BLM-induced lung fibrosis mouse model (Example 1, Table E2); format: in vivo, mouse (male C57Bl/6J); conditions: for Survival (number of animals surviving to study day): Ninte. 60 mg/kg PO, BLM mice, 12 at start
Experimental: Lung inflammation and fibrosis were induced in male C57Bl/6J mice by oropharyngeal administration of BLM. After the habituation phase mice were randomized based on body weight over the different groups. Under isoflurane anesthesia, 50 μl PBS or BLM was dripped onto the vocal cords facilitating aspiration. Mice were sacrificed at day 21 using a terminal bleed under isoflurane anesthesia.
Daily oral treatments commenced on Day 0, while daily IV treatments commenced on Day 8. Dosing was planned to continue until the day of termination (Day 21), however, due to high mortality in IV treated groups (see results), IV dosing was skipped on Day 19 and Day 20. […] Subsequently, the mice received 8% D20 (Kinemed, Emeryville) drinking water until sacrifice to maintain labeling of newly formed collagen. Body weight was monitored three times a week.
The study commenced with 7 animals in the non-diseased control group and 12 animals in the BLM-induced groups. Survival is show in Table E2 below.

[5] = Day 8 (prior to any treatments), Ninte. PO + Vehicle IV group

COC(=O)c1ccc2c(c1)NC(=O)/C2=C(\Nc1ccc(N(C)C(=O)CN2CCN(C)CC2)cc1)c1ccccc1 [Nintedanib, nintedanib]
BLM-induced alterations in respiratory parameters ([1]; BLM-induced rats, Day 15 and Day 21, Nintedanib, Pirfenidone or Test Article (HRS^FC1)): did not significantly impact | Expiratory Time [1, 5]: 0.151 s | Inspiratory Time [1, 5]: 0.115 s | Peak Expiratory Flow [1, 5]: 18.4 | Peak Inspiratory Flow [1, 5]: 17.2 | Tidal Volume [1, 5]: 1.19 | Respiratory Rate [1, 5]: 249.0 | Respiratory Minute Volume [1, 5]: 304.5 | Expiratory Time ([1]; Day 15, Ninte. PO + Vehicle IV): 0.205 s | Inspiratory Time ([1]; Day 15, Ninte. PO + Vehicle IV): 0.122 s | Peak Expiratory Flow ([1]; Day 15, Ninte. PO + Vehicle IV): 16.5 | Peak Inspiratory Flow ([1]; Day 15, Ninte. PO + Vehicle IV): 19.0 | Tidal Volume ([1]; Day 15, Ninte. PO + Vehicle IV): 1.35 | Respiratory Rate ([1]; Day 15, Ninte. PO + Vehicle IV): 223.4 | Respiratory Minute Volume ([1]; Day 15, Ninte. PO + Vehicle IV): 309.5 | Expiratory Time ([1]; Day 21, Ninte. PO + Vehicle IV): 0.231 s | Inspiratory Time ([1]; Day 21, Ninte. PO + Vehicle IV): 0.127 s | Peak Expiratory Flow ([1]; Day 21, Ninte. PO + Vehicle IV): 13.9 | Peak Inspiratory Flow ([1]; Day 21, Ninte. PO + Vehicle IV): 18.1 | Tidal Volume ([1]; Day 21, Ninte. PO + Vehicle IV): 1.44 | Respiratory Rate ([1]; Day 21, Ninte. PO + Vehicle IV): 203.7 | Respiratory Minute Volume ([1]; Day 21, Ninte. PO + Vehicle IV): 286.0 | BLM-induced alterations in respiratory parameters ([2]; BLM-induced rats, Day 15, Nintedanib 60 mg/kg PO, Test Article = HRS^FC1 IV weekly): did not significantly impact | Respiratory minute volume (RMV) ([2]; BLM-induced rats, Day 15, Nintedanib PO, Test Article = HRS^FC1 0.1-3 mg/kg from Day 9 or Day 2, FIG. 3): no impact on RMV | Expiratory Time ([2]; Day 8): 0.12 s | Inspiratory Time ([2]; Day 8): 0.09 s | Peak Expiratory Flow ([2]; Day 8): 28.4 | Peak Inspiratory Flow ([2]; Day 8): 26.7 | Tidal Volume ([2]; Day 8): 1.5 mL | Respiratory Rate ([2]; Day 8): 313.0 | Respiratory Minute Volume ([2]; Day 8): 477.5 | Expiratory Time ([2]; Day 15): 0.12 s | Inspiratory Time ([2]; Day 15): 0.09 s | Peak Expiratory Flow ([2]; Day 15): 28.8 | Peak Inspiratory Flow ([2]; Day 15): 29.0 | Tidal Volume ([2]; Day 15): 1.6 mL | Respiratory Rate ([2]; Day 15): 317.3 | Respiratory Minute Volume ([2]; Day 15): 534.6 | Interstitial/alveolar inflammatory cell infiltrate score [3]: no effect on interstitial inflammatory cell infiltrate | Survival rate ([4]; BLM-induced mice to Day 21, daily PO from Day 0: dexamethasone 0.25 mg/kg, Nintedanib 60 mg/kg): 92% | Survival (number of animals surviving to study day) ([4]; Day 11): 12 | Survival (number of animals surviving to study day) ([4]; Day 12): 12 | Survival (number of animals surviving to study day) ([4]; Day 13): 12 | Survival (number of animals surviving to study day) ([4]; Day 14): 12 | Survival (number of animals surviving to study day) ([4]; Day 15): 12 | Survival (number of animals surviving to study day) ([4]; Day 16): 12 | Survival (number of animals surviving to study day) ([4]; Day 17): 12 | Survival (number of animals surviving to study day) ([4]; Day 18): 12 | Survival (number of animals surviving to study day) ([4]; Day 19): 12 | Survival (number of animals surviving to study day) ([4]; Day 20): 12 | Survival (number of animals surviving to study day) ([4]; Day 21): 11
